Test results reported in patent US20220267774A1, “METHODS AND COMPOSITIONS TO DIRECT BREAKDOWN OF INSULIN MRNA IN BENIGN FASHION” (CITY OF HOPE, priority 2019, published 2022).
Each block holds one molecule with its values, some of them ahead of it.

Assays:
HLA-DQ8cis [1] = biological target: HLA-DQ8cis (Homo sapiens, UniProt P01909+P01920, A209T/A45G/C70Q/D89A/E183D/E77G/F237L/G63E/H199R/I129T/K197E/L178F/L74F/L98V/Q57E/Q76R/S185I/S97I/T217I/T49S/V73L/Y58L); conditions: cell-free; cited from earlier work
HLA-DQ8trans [2] = biological target: HLA-DQ8trans (Homo sapiens, UniProt P01909+P01920, A45G/D89A/E77G/H199R/N214S/Y58L); conditions: cell-free; cited from earlier work
HLA-DQ2trans [3] = biological target: HLA-DQ2trans (Homo sapiens, UniProt P01909+P01920, A45G/A70V/C70Q/D89A/E106A/E183D/E77G/E98D/G63E/H199R/I129T/K197E/L107V/L178F/L74F/L98V/N214S/P84L/P87L/Q57E/Q76R/S185I/S97I/T103K/T109R/T172A/T49S/T60S/V73L/V78E/V99I/Y58L/Y62S/Y69I/Y79F); conditions: cell-free; cited from earlier work
HLA-A2 = conditions: cited from earlier work
[4] = test system: 293T cells transfected with INS-DRiP-GFP; assay: Effect of ER stress inducers on DRiP expression in INS-DRiP-GFP transfected cells; assay type: cell-based, human; conditions: western blot and flow cytometry
Text: FIG. 8A is a western blot of 293T cell lysates (left to right) in nontransfected cells (NT), or cells transfected with INS-DRiP-GFP that were untreated (−), stimulated with thapsigargin (TG), or stimulated with tunicamycin (TM). The western blot in FIG. 8A is labeled using anti-GFP, anti-insulin, and anti-actin antibodies. FIG. 8B is a chart depicting densitometry analyses of the western blot in FIG. 8A analyzing the GFP (black bars) and insulin bands (gray bars) and shown as induction ratio±s.d. where the intensity of the nontreated cells was used as reference (right).
The effect of endoplasmic reticulum stress (ER stress) on translation initiation was also determined. Cells transfected with INS-DRiP-GFP were stimulated with the ER stress-inducers thapsigargin (TG) or tunicamycin (TM).

[5] = test system: human beta cell line (1.1B4); assay: Insulin mRNA and DRiP protein expression in beta cell line under stress; assay type: cell-based; conditions: 1.1B4 cells stressed with TG
Text: FIGS. 22A-B illustrates ex vivo cleavage of insulin mRNA in a cell line. FIG. 22A is a bar graph illustrating insulin mRNA expression change when beta cells are stressed with Thapsigargin (TG). FIG. 22B is a bar graph illustrating DRiP protein expression when beta cells are stressed with TG.
Ex vivo insulin mRNA expression and DRiP protein expression in beta cell line under stress. Ex vivo cleavage of insulin mRNA was examined in a 1.1B4 cell line. A human beta cell line (1.1B4) was stressed with Thapsigargin (chemical), with or without inhibition of IRE1, followed by analysis of the insulin mRNA expression and DRiP protein expression. […] But it is not enough to prevent an increase in DRiP expression. The protective SNP may have this effect ex vivo.

[6] = test system: cells transfected with INS-DRiP-GFP vectors; assay: DRiP-GFP expression from INS-DRiP-GFP vectors; assay type: cell-based; conditions: both variants
Text: Method: Two vectors of INS-DRiP-GFP (one of the protective genotype and one of the susceptible genotype) that express insulin and DRiP linked to GFP were created (FIG. 28). The vectors were transfected into cells, and GFP expression was observed when translation is started at the DRiP start codon.

HLA-DQ8cis [7] = biological target: T1, HLA-DQ8cis (human, UniProt P01909 24-216; P01920 33-230, limits assumed); assay: cell-free HLA-DQ binding studies
T1 MHC II alpha: not shown
T1 MHC II beta: not shown

HLA-DQ8trans [8] = biological target: T2, HLA-DQ8trans (human, UniProt P01909 24-216; P01920 33-230, limits assumed); assay: cell-free HLA-DQ binding studies
T2 construct: Formed by the alpha-chain of HLA-DQ2 (DQA1*05:01) and the beta-chain of HLA-DQ8 (DQB1*03:02) (so in the source)
T2 MHC II alpha: not shown
T2 MHC II beta: not shown

HLA-DQ2cis = HLA-DQ2cis (human, UniProt P01909 24-216, limits assumed); assay: cell-free HLA-DQ binding studies
HLA-DQ2trans [9] = biological target: T3, HLA-DQ2trans (human, UniProt P01909 24-216, limits assumed); assay: cell-free HLA-DQ binding studies
T3 construct: Formed by the alpha-chain of HLA-DQ8 (DQA1*03:01) and the beta-chain of HLA-DQ2 (DQB1*02:01) (so in the source)
T3 MHC II alpha: not shown
T3 MHC II beta: not shown

Molecule: MLYQHLLPL [INS-DRiP1-9]
- binding affinity to HLA-DQ8cis (HLA-DQ8cis [1]): strong binding affinity
- binding affinity to HLA-DQ8trans (HLA-DQ8trans [2]): strong binding affinity
- binding affinity to HLA-DQ2trans (HLA-DQ2trans [3]): not
- binding to HLA-A2 (HLA-A2): high affinity

Molecule: tunicamycin [TM]
- expression of DRiP polypeptide [4]: increased by TG but not TM

Molecule: C/C=C(/C)C(=O)O[C@H]1C(C)=C2[C@H]([C@@H]1OC(=O)CCCCCCC)[C@@](C)(OC(C)=O)C[C@H](OC(=O)CCC)[C@@]1(O)[C@H]2OC(=O)[C@@]1(C)O [TG, thapsigargin]
- expression of DRiP polypeptide [4]: increased
- DRiP protein expression [5]: goes up
- insulin RNA expression ([5]; with or without IRE1 inhibition): goes down
- effect on DRiP-GFP expression [6]: increased in both variants

- binding result (HLA-DQ8cis [7]): binds
- binding result (HLA-DQ8trans [8]): binds
- binding result (HLA-DQ2cis): no binding
- binding result (HLA-DQ2trans [9]): no binding
B1: INS-DRiP1-9 epitope MLYQHLLPL (peptide)
peptide: MLYQHLLPL
notes: Synthetic counterpart of the N-terminal 9-mer of INS-DRiP; also called 9-mer peptide; INS-DRiP peptide fragment
